Columns and labels:
HPTPβ = HPTPβ (Homo sapiens, UniProt P23467); experiment: HPTPβ inhibition, IC50 (Table A); type: biochemical
PTP1B = molecular target: T1, PTP1B (Homo sapiens, UniProt P18031); experiment: PTP1B inhibition, IC50 (Table A); type: biochemical
T1 sequence (P18031 1-435): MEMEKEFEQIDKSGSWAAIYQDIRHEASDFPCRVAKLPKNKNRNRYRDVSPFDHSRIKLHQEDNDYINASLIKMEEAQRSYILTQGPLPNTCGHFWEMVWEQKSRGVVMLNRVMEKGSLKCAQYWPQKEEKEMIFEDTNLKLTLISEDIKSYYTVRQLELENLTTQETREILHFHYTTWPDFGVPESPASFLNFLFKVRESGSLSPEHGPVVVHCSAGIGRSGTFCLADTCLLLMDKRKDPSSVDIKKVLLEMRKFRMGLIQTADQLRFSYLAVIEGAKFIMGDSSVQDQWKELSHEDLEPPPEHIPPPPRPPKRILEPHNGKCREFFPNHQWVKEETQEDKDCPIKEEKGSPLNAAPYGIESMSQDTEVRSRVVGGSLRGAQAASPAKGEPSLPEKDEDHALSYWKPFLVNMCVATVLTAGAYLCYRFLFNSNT

Sequence of HPTPβ (P23467 23-1997): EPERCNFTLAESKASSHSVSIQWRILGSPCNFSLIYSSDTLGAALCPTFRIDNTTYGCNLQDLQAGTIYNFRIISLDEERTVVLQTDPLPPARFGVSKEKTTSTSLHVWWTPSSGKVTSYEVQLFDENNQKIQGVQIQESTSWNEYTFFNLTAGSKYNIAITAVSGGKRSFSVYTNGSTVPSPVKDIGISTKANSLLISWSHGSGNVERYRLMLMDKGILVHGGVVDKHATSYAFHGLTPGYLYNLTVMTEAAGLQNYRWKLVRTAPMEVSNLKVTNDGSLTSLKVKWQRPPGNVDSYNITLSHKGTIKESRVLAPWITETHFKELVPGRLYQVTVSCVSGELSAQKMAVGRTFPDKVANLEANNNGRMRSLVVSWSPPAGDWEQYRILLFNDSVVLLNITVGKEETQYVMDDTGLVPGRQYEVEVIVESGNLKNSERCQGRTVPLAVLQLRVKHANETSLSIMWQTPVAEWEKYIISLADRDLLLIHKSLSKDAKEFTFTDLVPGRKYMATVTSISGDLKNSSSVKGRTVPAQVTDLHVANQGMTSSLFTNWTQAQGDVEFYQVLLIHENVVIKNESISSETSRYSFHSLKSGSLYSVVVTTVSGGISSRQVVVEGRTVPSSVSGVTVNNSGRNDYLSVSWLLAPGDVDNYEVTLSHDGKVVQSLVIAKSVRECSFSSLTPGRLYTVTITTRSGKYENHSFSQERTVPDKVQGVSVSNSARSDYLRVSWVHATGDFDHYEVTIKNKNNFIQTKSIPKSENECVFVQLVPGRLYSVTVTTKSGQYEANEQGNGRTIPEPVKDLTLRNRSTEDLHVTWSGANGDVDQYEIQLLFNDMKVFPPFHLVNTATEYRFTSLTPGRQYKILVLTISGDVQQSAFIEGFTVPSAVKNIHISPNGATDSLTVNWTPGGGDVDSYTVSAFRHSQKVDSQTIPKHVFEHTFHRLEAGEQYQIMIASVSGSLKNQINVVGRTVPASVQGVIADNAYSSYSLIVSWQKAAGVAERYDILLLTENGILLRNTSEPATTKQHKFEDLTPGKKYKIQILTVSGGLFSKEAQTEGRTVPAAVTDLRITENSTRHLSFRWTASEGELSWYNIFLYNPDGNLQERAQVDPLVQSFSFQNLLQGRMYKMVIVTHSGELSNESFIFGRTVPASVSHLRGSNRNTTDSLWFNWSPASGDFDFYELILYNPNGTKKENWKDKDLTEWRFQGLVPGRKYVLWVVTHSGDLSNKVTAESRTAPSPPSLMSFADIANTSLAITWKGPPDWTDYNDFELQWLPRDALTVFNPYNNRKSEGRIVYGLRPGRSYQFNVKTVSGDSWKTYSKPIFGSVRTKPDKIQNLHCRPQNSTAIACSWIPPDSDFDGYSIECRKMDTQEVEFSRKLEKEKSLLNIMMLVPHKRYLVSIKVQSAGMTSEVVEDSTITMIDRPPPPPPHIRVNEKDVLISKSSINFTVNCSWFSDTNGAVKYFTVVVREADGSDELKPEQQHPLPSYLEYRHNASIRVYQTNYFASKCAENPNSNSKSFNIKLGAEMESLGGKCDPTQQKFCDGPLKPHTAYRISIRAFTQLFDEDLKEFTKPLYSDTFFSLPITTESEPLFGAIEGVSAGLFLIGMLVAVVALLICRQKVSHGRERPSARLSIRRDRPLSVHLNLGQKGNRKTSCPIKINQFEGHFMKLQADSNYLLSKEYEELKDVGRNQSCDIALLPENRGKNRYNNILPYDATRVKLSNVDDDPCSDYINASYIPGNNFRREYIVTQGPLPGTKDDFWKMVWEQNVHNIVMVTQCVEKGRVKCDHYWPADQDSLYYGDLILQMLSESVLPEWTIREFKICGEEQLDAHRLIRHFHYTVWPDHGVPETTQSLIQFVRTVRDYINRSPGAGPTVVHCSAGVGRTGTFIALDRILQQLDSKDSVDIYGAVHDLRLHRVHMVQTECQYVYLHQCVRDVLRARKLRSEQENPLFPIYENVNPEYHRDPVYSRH

IC50 (HPTPβ) [nM] | IC50 (PTP1B) [µM] | Compound
28 | 5.36 | CCc1csc([C@H](Cc2ccc(NS(=O)(=O)O)cc2)NC(=O)Cc2cccc(F)c2F)n1 [(S)-4-(2-(2-(2,3-Difluorophenyl)acetamido)-2-(4-ethylthiazol-2-yl)ethyl)phenyl-sulfamic acid]
37 | 25.4 | CCc1csc([C@H](Cc2ccc(NS(=O)(=O)O)cc2)NC(=O)Cc2cccc(OC)c2OC)n1 [(S)-4-(2-(2-(2,3-Dimethoxyphenyl)acetamido)-2-(4-ethylthiazol-2-yl)ethyl)-phenylsulfamic acid]
56 | 22.8 | CCc1csc([C@H](Cc2ccc(NS(=O)(=O)O)cc2)NC(=O)Cc2ccccc2Cl)n1 [(S)-4-(2-(2-(2-Chlorophenyl)acetamido)-2-(4-ethylthiazol-2-yl)ethyl)phenyl-sulfamic acid]
75 | 23.9 | CCc1csc([C@H](Cc2ccc(NS(=O)(=O)O)cc2)NC(=O)Cc2ccc(F)c(F)c2)n1 [(S)-4-(2-(2-(3,4-Difluorophenyl)acetamido)-2-(4-ethylthiazol-2-yl)ethyl)phenyl-sulfamic acid]
28 | 15.5 | CCc1csc([C@H](Cc2ccc(NS(=O)(=O)O)cc2)NC(=O)Cc2ccc(OC)c(OC)c2)n1 [(S)-4-(2-(2-(3,4-Dimethoxyphenyl)acetamido)-2-(4-ethylthiazol-2-yl)ethyl)-phenylsulfamic acid]
33 | 13.6 | CCc1csc([C@H](Cc2ccc(NS(=O)(=O)O)cc2)NC(=O)Cc2cccc(Cl)c2)n1 [(S)-4-(2-(2-(3-Chlorophenyl)acetamido)-2-(4-ethylthiazol-2-yl)ethyl)phenyl-sulfamic acid]
0.2 | 15.3 | CCc1csc([C@H](Cc2ccc(NS(=O)(=O)O)cc2)NC(=O)CCc2cccc(Cl)c2)n1 [(S)-4-(2-(3-(3-Chlorophenyl)propanamido)-2-(4-ethylthiazol-2-yl)ethyl)phenyl-sulfamic acid]
12 | 5.36 | CCc1csc([C@H](Cc2ccc(NS(=O)(=O)O)cc2)NC(=O)Cc2ccccc2F)n1 [(S)-4-(2-(4-Ethylthiazol-2-yl)-2-(2-(2-fluorophenyl)acetamido)ethyl)phenyl-sulfamic acid]
0.3 | 2.85 | CCc1csc([C@H](Cc2ccc(NS(=O)(=O)O)cc2)NC(=O)Cc2cccc(F)c2)n1 [(S)-4-(2-(4-Ethylthiazol-2-yl)-2-(2-(3-fluorophenyl)acetamido)ethyl)phenyl-sulfamic acid]
40 | 6.57 | CCc1csc([C@H](Cc2ccc(NS(=O)(=O)O)cc2)NC(=O)Cc2cccc(O)c2)n1 [(S)-4-(2-(4-Ethylthiazol-2-yl)-2-(2-(3-hydroxyphenyl)acetamido)ethyl)phenyl-sulfamic acid]
8 | 4.05 | CCc1csc([C@H](Cc2ccc(NS(=O)(=O)O)cc2)NC(=O)Cc2cccc(OC)c2)n1 [(S)-4-(2-(4-Ethylthiazol-2-yl)-2-(2-(3-methoxyphenyl)acetamido)ethyl)phenyl-sulfamic acid]
3 | 16.9 | CCc1csc([C@H](Cc2ccc(NS(=O)(=O)O)cc2)NC(=O)CCc2ccccc2OC)n1 [(S)-4-(2-(4-Ethylthiazol-2-yl)-2-(3-(2-methoxyphenyl)propanamido)ethyl)phenyl-sulfamic acid]
10 | 20.6 | CCc1csc([C@H](Cc2ccc(NS(=O)(=O)O)cc2)NC(=O)CCc2cccc(OC)c2)n1 [(S)-4-(2-(4-Ethylthiazol-2-yl)-2-(3-(3-methoxyphenyl)propanamido)ethyl)phenyl-sulfamic acid]
6 | 16 | CCc1csc([C@H](Cc2ccc(NS(=O)(=O)O)cc2)NC(=O)CCc2ccc(OC)cc2)n1 [(S)-4-(2-(4-Ethylthiazol-2-yl)-2-(3-(4-methoxyphenyl)propanamido)ethyl)phenyl-sulfamic acid]
2 | 10.4 | CCc1csc([C@H](Cc2ccc(NS(=O)(=O)O)cc2)NC(=O)CCc2ccccc2)n1 [(S)-4-(2-(4-Ethylthiazol-2-yl)-2-(3-phenylpropanamido)ethyl)phenylsulfamic acid]
42 | 19 | CCc1csc([C@H](Cc2ccc(NS(=O)(=O)O)cc2)NC(=O)c2ccc3c(c2)OCO3)n1 [(S)-4-[2-(Benzo[d][1,3]dioxole-5-carboxamido)-2-(4-ethylthiazol-2-yl)ethyl]phenylsulfamic acid]
2 | 0.254 | CCc1csc([C@H](Cc2ccc(NS(=O)(=O)O)cc2)NC(=O)Cn2cc(C)c(=O)[nH]c2=O)n1 [(S)-4-{2-(4-Ethylthiazol-2-yl)-2-[2-(5-methyl-2,4-dioxo-3,4-dihydropyrimidin-1(2H)-yl)acetamido]ethyl}phenylsulfamic acid]
2 | 0.53 | CCc1csc([C@H](Cc2ccc(NS(=O)(=O)O)cc2)NC(=O)CN2CCN(CC)C(=O)C2=O)n1 [(S)-4-{2-[2-(4-Ethyl-2,3-dioxopiperazin-1-yl)acetamido]-2-(4-ethylthiazol-2-yl)ethyl}phenylsulfamic acid]
50 | 22.9 | CCc1csc([C@H](Cc2ccc(NS(=O)(=O)O)cc2)NC(=O)Cc2ccccc2)n1 [(S)-{4-[2-(4-Ethylthiazol-2-yl)-2-(phenylacetylamido)ethyl]-phenyl}sulfamic acid]
14 | 11.7 | (S)-4-(2-(4-Ethylthiazol-2-yl)-2-(2-(2-methoxyphenyl)acetamido)ethyl)phenyl-sulfamic acid
